Source: patent US20060235222A1, “Indole-derivative modulators of steroid hormone nuclear receptors” (ELI LILLY AND COMPANY, priority 2003, published 2006)

Legend:
[1] = target: T1, glucocorticoid receptor (Homo sapiens, UniProt P04150); experiment: Glucocorticoid Receptor Binding Assay (Method 1), [3H]-dexamethasone competition, A549 cell extract; conditions: 1.86 nM [3H]-dexamethasone, read-out: GR Ki (nM) Method 1
T1 construct: containing 50-200 ug of A549 cell extract and 1.86 nM; host or cells: A549 human lung epithelial cells
T1 sequence (P04150 1-777): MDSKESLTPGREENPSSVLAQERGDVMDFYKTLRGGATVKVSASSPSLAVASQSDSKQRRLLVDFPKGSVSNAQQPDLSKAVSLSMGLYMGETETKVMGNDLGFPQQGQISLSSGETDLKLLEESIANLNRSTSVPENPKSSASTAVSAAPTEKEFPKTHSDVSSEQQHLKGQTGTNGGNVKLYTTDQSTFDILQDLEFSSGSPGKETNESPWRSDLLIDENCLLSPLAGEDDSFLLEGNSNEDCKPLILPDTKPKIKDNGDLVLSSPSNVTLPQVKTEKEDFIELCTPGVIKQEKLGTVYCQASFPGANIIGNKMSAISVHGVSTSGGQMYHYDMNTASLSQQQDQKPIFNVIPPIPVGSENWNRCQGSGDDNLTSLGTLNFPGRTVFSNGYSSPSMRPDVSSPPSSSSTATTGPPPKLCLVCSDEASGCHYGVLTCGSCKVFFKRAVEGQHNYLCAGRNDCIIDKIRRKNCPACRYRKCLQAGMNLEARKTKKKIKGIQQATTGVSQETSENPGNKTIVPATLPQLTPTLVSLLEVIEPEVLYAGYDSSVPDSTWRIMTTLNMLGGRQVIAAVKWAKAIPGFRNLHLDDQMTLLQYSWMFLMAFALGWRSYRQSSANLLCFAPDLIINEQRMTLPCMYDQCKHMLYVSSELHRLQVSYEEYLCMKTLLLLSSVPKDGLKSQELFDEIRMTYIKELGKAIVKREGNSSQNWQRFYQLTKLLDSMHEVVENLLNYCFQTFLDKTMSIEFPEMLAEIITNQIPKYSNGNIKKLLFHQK
Outline: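 Receptor source: sonicated extract of human A549 lung epithelial cells in glycerol/Tris-HCl pH 7.2 buffer with sodium molybdate. [3H]-dexamethasone competition run 16 h at 4 °C; unbound radioligand stripped with dextran-coated charcoal (8 min, RT) and receptor-bound radioactivity quantified by scintillation counting.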

[2] = target: T2, human MR (Homo sapiens, UniProt P08235); experiment: Mineralocorticoid Receptor Binding Assay (Method 1), [3H]-aldosterone competition; conditions: 0.5 nM [3H]-aldosterone, human MR expressed in Sf9 cells
T2 construct: The full length human MR gene is cloned from a human kidney or human brain cDNA library; inferred from own knowledge of the pAcHLT vector (N); made in house; host or cells: Sf9 insect cells (baculovirus)
T2 sequence (P08235 1-984): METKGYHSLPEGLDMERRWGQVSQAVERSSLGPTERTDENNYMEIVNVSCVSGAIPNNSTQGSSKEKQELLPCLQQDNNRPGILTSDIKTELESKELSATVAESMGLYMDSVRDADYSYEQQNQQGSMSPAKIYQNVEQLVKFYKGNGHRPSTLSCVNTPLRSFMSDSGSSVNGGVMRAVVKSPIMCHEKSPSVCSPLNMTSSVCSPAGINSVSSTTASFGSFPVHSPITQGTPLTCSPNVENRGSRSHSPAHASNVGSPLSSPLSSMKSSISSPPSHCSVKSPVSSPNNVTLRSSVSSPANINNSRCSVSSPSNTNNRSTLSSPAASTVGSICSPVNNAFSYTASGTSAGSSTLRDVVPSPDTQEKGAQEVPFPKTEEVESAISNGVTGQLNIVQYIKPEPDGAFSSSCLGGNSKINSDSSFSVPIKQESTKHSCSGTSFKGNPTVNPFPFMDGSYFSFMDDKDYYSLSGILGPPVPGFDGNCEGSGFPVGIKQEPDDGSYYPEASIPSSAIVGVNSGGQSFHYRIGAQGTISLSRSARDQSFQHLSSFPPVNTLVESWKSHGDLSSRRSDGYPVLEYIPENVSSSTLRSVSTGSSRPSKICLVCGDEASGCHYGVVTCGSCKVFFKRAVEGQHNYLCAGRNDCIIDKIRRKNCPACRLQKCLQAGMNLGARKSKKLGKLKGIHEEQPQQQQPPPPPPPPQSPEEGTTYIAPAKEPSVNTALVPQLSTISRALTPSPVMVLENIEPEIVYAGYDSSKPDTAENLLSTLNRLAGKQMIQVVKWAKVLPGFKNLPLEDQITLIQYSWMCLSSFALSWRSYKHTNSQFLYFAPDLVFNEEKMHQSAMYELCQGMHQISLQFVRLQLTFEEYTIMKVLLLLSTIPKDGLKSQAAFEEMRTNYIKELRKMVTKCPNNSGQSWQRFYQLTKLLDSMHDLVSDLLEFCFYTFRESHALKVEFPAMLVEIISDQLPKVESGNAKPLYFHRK
Outline: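 Full-length human MR expressed in Sf9 cells via baculovirus; lysate supernatant (about 20-25 μg protein) incubated with 0.5 nM [3H]-aldosterone and test compound for about 16 h at 4° C. Buffer was Tris/molybdate/phosphate/pyrophosphate with 10% glycerol, pH 7.5; filter-bound complex counted by scintillation.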

[3] = target: T3, human GR (glucocorticoid receptor) (Homo sapiens, UniProt P04150); experiment: Alternative Binding Assay Protocol (Method 2), 293-GR lysate, 3H-dexamethasone competition; conditions: 0.3 nM 3H-dexamethasone
T3 construct: expressed in transfected cells; host or cells: 293 cells
T3 sequence (P04150 1-777): T1 sequence (P04150 1-777)
Experimental: Alternative Binding Assay Protocol for MR, GR, AR, and PR (Method 2):
Cell lysates from 293 cells overexpressing human GR (glucocorticoid receptor), AR (androgen receptor), MR (mineralocorticoid receptor) or PR (progesterone-receptor) are used for competition binding assays to determine Ki values for test compounds. […] Competing compounds are added at various concentraions in half-log increments. Non-specific binding is determined in the presence of 500 nM dexamethasone for GR binding, 500 nM aldosterone for MR binding, or 500 nM methyltrienolone for AR and PR binding. The binding reaction (140 μl) is incubated for overnight at 4° C., then 70 μl of cold charcoal-dextran buffer (containing per 50 ml of assay buffer, 0.75 g of charcoal and 0.25 g of dextran) is added to each reaction. Plates are mixed 8 minutes on an orbital shaker at 4° C. Plates are then centrifuged at 3,000 rpm at 4° C. for 10 minutes. An aliquot of 120 μl of the mix is transferred to another 96-well plate and 175 μl of Wallac Optiphase “Hisafe 3” scintillation fluid is added to each well. Plates are sealed and shaken vigorously on an orbital shaker. After an incubation of 2 hrs, plates are read in a Wallac Microbeta counter. […] The Kd for ^3H-dexamethasone for GR binding, ^3H-methyltrienolone for AR binding, ^3H-aldosterone for MR binding, or ^3H-methyltrienolone for PR binding, is determined by saturation binding. The IC50 values for compounds are converted to Ki using Cheng-Prusoff equation and the Kd determined by saturation binding assay.

| Compound | Ki [1] | Ki [2] | melting point | Ki [3] |
| --- | --- | --- | --- | --- |
| CC(C)(c1ccccc1)c1c[nH]c2c(NS(C)(=O)=O)cccc12 [Example 78, N-[3-(1-Methyl-1-phenyl-ethyl)-1H-indol-7-yl]-methanesulfonamide] | < 500 nM | < 500 nM | – | – |
| CCC(CC)(c1ccc(F)cc1)c1c[nH]c2c(N)cccc12 [Example 79, 3-[1-Ethyl-1-(4-fluoro-phenyl)-propyl]-1H-indol-7-ylamine] | < 1000 nM | < 500 nM | – | – |
| CCC(CC)(c1ccc2sc(C)nc2c1)c1c[nH]c2c(NS(C)(=O)=O)cccc12 [Example 140, N-{3-[1-Ethyl-1-(2-methyl-benzothiazol-5-yl)-propyl]-1H-indol-7-yl}-methanesulfonamide] | – | – | 112 to 117 °C | – |
| CCC(CC)(c1ccc2oc(C)nc2c1)c1c[nH]c2c(NS(C)(=O)=O)cccc12 [Example 145, N-{3-[1-Ethyl-1-(2-methyl-benzooxazol-5-yl)-propyl]-1H-indol-7-yl}-methanesulfonamide] | – | – | 152 to 160 °C | – |
| CCC(CC)(c1ccc2sc(NC(C)=O)nc2c1)c1c[nH]c2c(NS(C)(=O)=O)cccc12 [Example 150, N-{5-[1-Ethyl-1-(7-methanesulfonylamino-1H-indol-3-yl)-propyl]-benzothiazol-2-yl}-acetamide] | – | – | 266 to 268 °C | – |
| CCC(CC)(c1ccc2nc(C(F)(F)F)[nH]c2c1)c1c[nH]c2c(NS(C)(=O)=O)cccc12 [Example 151, N-{3-[1-Ethyl-1-(2-trifluoromethyl-3H-benzoimidazol-5-yl)-propyl]-1H-indol-7-yl}-methanesulfonamide] | – | – | 225 to 235 °C | – |
| C[C@](c1ccc(Cl)cc1)(c1c[nH]c2c(NS(C)(=O)=O)cccc12)C1CC1 [Example 164] | – | < 500 nM | – | < 500 nM |
| CCC(c1ccc(F)cc1)(c1c[nH]c2c(NS(C)(=O)=O)cccc12)C1CC1 (stereo not drawn) [Example 165] | – | < 500 nM | – | < 500 nM |
| CC(c1ccc(Cl)cc1)(c1c[nH]c2c(NS(C)(=O)=O)cccc12)C1CC1 (stereo not drawn) [Example 167] | – | < 500 nM | – | < 500 nM |
| CC(c1ccccc1F)(c1c[nH]c2c(NS(C)(=O)=O)cccc12)C1CC1 (stereo not drawn) [Example 168] | – | < 500 nM | – | < 500 nM |
| Cc1ccc(C(C)(c2c[nH]c3c(NS(C)(=O)=O)cccc23)C2CC2)cc1 (stereo not drawn) [Example 169] | – | < 500 nM | – | < 500 nM |
| COc1ccc(C(C)(c2c[nH]c3c(NS(C)(=O)=O)cccc23)C2CC2)cc1 (stereo not drawn) [Example 170] | – | < 500 nM | – | < 500 nM |
| CCc1ccc(C(CC)(CC)c2c[nH]c3c(NS(C)(=O)=O)cccc23)cc1 [Example 171] | – | – | – | < 500 nM |
| C[C@](c1ccccc1F)(c1c[nH]c2c(NS(C)(=O)=O)cccc12)C1CC1 [Example 172] | – | < 500 nM | – | < 500 nM |
| C[C@](c1ccc(F)cc1)(c1c[nH]c2c(NS(C)(=O)=O)cccc12)C1CC1 [Example 173] | – | < 500 nM | – | < 500 nM |
| C[C@@](c1ccc(Cl)cc1)(c1c[nH]c2c(NS(C)(=O)=O)cccc12)C1CC1 [Example 174] | – | < 500 nM | – | < 500 nM |
| CC(c1ccc2c(c1)OCO2)(c1c[nH]c2c(NS(C)(=O)=O)cccc12)C1CC1 (stereo not drawn) [Example 175] | – | < 500 nM | – | < 500 nM |

| Compound | Ki [1] | Ki [2] | melting point | Ki [3] |
| --- | --- | --- | --- | --- |
| CCCC(CCC)(c1ccc(OC)cc1)c1c[nH]c2c(NS(C)(=O)=O)cccc12 [Example 176] | – | – | – | < 500 nM |
| CC(c1ccccc1)(c1c[nH]c2c(NS(C)(=O)=O)cccc12)C1CC1 (stereo not drawn) [Example 178] | – | < 500 nM | – | < 500 nM |
| CCCC(c1ccc(F)cc1)(c1c[nH]c2c(NS(C)(=O)=O)cccc12)C1CC1 (stereo not drawn) [Example 179] | – | < 500 nM | – | < 500 nM |
| C[C@@](c1ccccc1F)(c1c[nH]c2c(NS(C)(=O)=O)cccc12)C1CC1 [Example 180] | – | < 500 nM | – | < 500 nM |
| CCC(CC)(c1ccc2oc(C)cc2c1)c1c[nH]c2c(NS(C)(=O)=O)cccc12 [Example 181] | – | < 500 nM | – | < 500 nM |
| CCC(CC)(c1ccc(C(C)C)cc1)c1c[nH]c2c(NS(C)(=O)=O)cccc12 [Example 182] | – | < 500 nM | – | < 10000 nM |
| CCCCC(c1ccc(F)cc1)(c1c[nH]c2c(NS(C)(=O)=O)cccc12)C1CC1 (stereo not drawn) [Example 185] | – | < 500 nM | – | < 500 nM |
| C[C@@](c1ccc(F)cc1)(c1c[nH]c2c(NS(C)(=O)=O)cccc12)C1CC1 [Example 186] | – | < 500 nM | – | < 500 nM |
| CC(C)CC(C)(c1ccccc1)c1c[nH]c2c(NS(C)(=O)=O)cccc12 (stereo not drawn) [Example 187] | – | < 500 nM | – | < 500 nM |
| CC1(c2c[nH]c3c(NS(C)(=O)=O)cccc23)CCCCc2ccccc21 (stereo not drawn) [Example 189] | – | < 500 nM | – | < 500 nM |
| CCC(CC)(c1ccc2sc(C)nc2c1)c1c[nH]c2c(NS(C)(=O)=O)cccc12 [Example 190] | – | < 500 nM | – | < 500 nM |
| CCC(CC)(c1ccc2oc(C)nc2c1)c1c[nH]c2c(NS(C)(=O)=O)cccc12 [Example 191] | – | < 500 nM | – | < 1000 nM |
| CCC(CC)(c1ccc2nc(C)oc2c1)c1c[nH]c2c(NS(C)(=O)=O)cccc12 [Example 193] | – | < 500 nM | – | < 500 nM |
| CCC(CC)(c1ccc2c(ccn2C(C)=O)c1)c1c[nH]c2c(NS(C)(=O)=O)cccc12 [Example 195] | – | < 500 nM | – | < 1000 nM |
| CCC(CC)(c1ccc(N2CCOCC2)cc1)c1c[nH]c2c(NS(C)(=O)=O)cccc12 [Example 197] | – | < 500 nM | – | < 500 nM |
| CCC(CC)(c1ccc2nc(NC(C)=O)sc2c1)c1c[nH]c2c(NS(C)(=O)=O)cccc12 [Example 199] | – | < 1000 nM | – | < 500 nM |
